Reference: PMC13415951 (Journal of Experimental Botany, 2026)

Assays:
[1] = tested on: roots of Brachypodium distachyon seedlings; experiment: Extracts from B. distachyon roots exposed to mycotoxin, LC-MS/MS; assay type: in vivo; details: 24 h; for D3G synthesis in the presence of CUL: 50 mg l^−1 DON, 10 mg l^−1 CUL
Protocol: Seedlings of Apogee and B. distachyon with roots 1–2 cm long were incubated in full-strength MS without sucrose and containing 50 mg l^−1 DON and/or either 50 mg l^−1 CUL (Apogee) or 10 mg l^−1 CUL (B. distachyon). The seedlings were placed into sterile 2 ml tubes containing 500 µl medium such that only the roots were submerged. After 24 h incubation under the same conditions as specified above for the elongation assays, the roots were cut from the seedlings, washed with 10% ethanol, briefly dried with tissue paper, and weighed. The roots were then ground in the Retsch Ball Mill MM 400 for 1 min at 30× s^−1 using two 5 mm steel balls, after which 500 µl methanol was added and the roots were extracted for 2 h at room temperature. The concentrations of DON, D3G, CUL, and CUL-glucosides were determined by LC-MS/MS.
DON, D3G, CUL, and CUL-glucosides were measured on a 6500+ QTrap MS/MS instrument (Sciex) coupled to an Agilent 1290 UHPLC system. A Kinetex C18 column (150×2.1 mm, 2.6 µm particle size; Phenomenex, Torrance, USA) was used for separation at 30 °C. Mobile phases consisted of mixtures of methanol and water (A, 10% MeOH; B, 97% MeOH) and both contained 5 mM ammonium acetate. A flow rate of 250 µl min^–1 and an injection volume of 1 µl were chosen. The gradient started with 0% B for 1.0 min and then increased linearly to 100% B at 8.5 min. The column was rinsed with 100% B for 3 min, before equilibration with the start conditions for another 3 min until the end of the run at 14.5 min. The switching valve of the mass spectrometer directed the eluent into the ion source between 3.0 min and 11.0 min. […] DON and D3G were detected in negative ion mode first, and after 4.5 min the polarity was changed to positive electrospray mode to detect CUL and CUL-glucosides. […] D3G was determined with the [M+CH3COO]^− ion as the precursor (DP −80 V) with the following SRM settings: m/z 517.2 > 427.1 (CE −30 eV) and m/z 517.2 > 59.1 (CE −85 eV). […]

BdUGT5g03300 = target: T1, BdUGT5g03300 (Brachypodium distachyon, UniProt I1IW79); experiment: biochemical
T1 sequence (I1IW79 1-469): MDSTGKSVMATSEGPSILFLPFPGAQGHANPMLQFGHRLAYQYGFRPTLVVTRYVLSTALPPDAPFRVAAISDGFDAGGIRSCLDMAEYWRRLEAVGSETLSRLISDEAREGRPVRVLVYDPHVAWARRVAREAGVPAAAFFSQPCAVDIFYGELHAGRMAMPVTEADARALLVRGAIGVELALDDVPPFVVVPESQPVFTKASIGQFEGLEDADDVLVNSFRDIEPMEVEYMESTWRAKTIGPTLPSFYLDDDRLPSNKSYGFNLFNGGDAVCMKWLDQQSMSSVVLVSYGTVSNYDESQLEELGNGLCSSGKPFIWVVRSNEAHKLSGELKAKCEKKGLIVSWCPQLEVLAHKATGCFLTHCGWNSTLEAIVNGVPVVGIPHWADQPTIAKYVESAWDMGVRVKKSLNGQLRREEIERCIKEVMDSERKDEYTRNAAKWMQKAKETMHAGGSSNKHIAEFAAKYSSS

OsUGT79 Q202A = target: T2, OsUGT79 Q202A (Oryza sativa subsp. japonica, UniProt Q7XT97, Q202A); experiment: biochemical; assay type: biochemical
T2 sequence (Q7XT97 1-466 Q202A): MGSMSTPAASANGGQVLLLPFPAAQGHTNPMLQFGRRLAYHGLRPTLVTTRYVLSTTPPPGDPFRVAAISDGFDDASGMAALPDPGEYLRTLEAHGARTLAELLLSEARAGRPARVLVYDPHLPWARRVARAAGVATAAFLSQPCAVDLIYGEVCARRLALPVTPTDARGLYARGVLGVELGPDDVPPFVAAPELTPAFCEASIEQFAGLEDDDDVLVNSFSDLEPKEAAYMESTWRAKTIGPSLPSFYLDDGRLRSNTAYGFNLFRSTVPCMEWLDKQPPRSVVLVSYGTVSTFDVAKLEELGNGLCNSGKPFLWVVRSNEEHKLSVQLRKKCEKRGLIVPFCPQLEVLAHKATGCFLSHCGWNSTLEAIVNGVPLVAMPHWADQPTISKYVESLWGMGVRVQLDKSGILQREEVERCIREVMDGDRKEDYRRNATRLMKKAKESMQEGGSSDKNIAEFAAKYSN

[2] = read-out: Glucosylation rate of DON, percentage of the control

CC1(C)CCC[C@]2(C)[C@@H]3[C@H]1[C@@H](O)[C@@]2(C)C[C@H]3O [CUL, culmorin]
inhibition at 10 µg/mL ([1]; Brachypodium distachyon, OE-10R14 roots, 50 mg l^−1 DON with 10 mg l^−1 CUL, read-out: Reduction of D3G synthesis in the presence of CUL): ~58.6%
D3G synthesis in the presence of CUL ([1]; TILLING line 6829-3 (wild-type BdUGT5g03300 allele)): suppressed
D3G synthesis in the presence of CUL ([1]; TILLING mutant 6829-7 (BdUGT5g03300 W345*)): not further reduced
Specific activity (glucoside formation) (BdUGT5g03300): ≈ 1×10^−3 nmol min^−1 mg^−1
Specific activity with CUL, fold below the value obtained with DON (BdUGT5g03300): ~1000 fold
Glucosylation rate of DON, percentage of the control (BdUGT5g03300; 25 µM): 0.84±0.03%
remaining activity at 25 µM (BdUGT5g03300; [2]): < 1%
remaining activity at 125 µM (BdUGT5g03300; [2]): 0.19 ± 0.01%
K iu of CUL (uncompetitive inhibition, DON as variable substrate) (OsUGT79 Q202A): 56 µM
Ki (OsUGT79 Q202A): 16 µM
